Test results as given in PubChem BioAssay (NCI).
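Protocol summary: plate cells (96-well), add compound at 5 concentrations, incubate 48 h, interpolate endpoints linearly. The concentration for 50% growth inhibition is given as GI50. TGI marks complete inhibition of growth.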

How the values were obtained:
Assay in all cases: NCI anticancer screen, dose series, 48 h
HL-60(TB) leukemia = test system: HL-60(TB) leukemia
M14 melanoma = test system: M14 melanoma
DU-145 prostate = test system: DU-145 prostate
RXF 393 renal = test system: RXF 393 renal
HOP-92 NSCLC = test system: HOP-92 NSCLC
IGROV1 ovarian = test system: IGROV1 ovarian
OVCAR-3 ovarian = test system: OVCAR-3 ovarian
CCRF-CEM leukemia = test system: CCRF-CEM leukemia
MCF7 breast = test system: MCF7 breast
HCT-15 colon = test system: HCT-15 colon
SNB-19 CNS = test system: SNB-19 CNS
SN12C renal = test system: SN12C renal
SW-620 colon = test system: SW-620 colon
MOLT-4 leukemia = test system: MOLT-4 leukemia
EKVX NSCLC = test system: EKVX NSCLC
786-0 renal = test system: 786-0 renal
NCI-H522 lung = test system: NCI-H522 lung
MDA-MB-435 = test system: MDA-MB-435
RPMI-8226 leukemia = test system: RPMI-8226 leukemia
MDA-MB-231 breast = test system: MDA-MB-231 breast
SR leukemia = test system: SR leukemia
A498 renal = test system: A498 renal
T-47D breast = test system: T-47D breast
HT29 colon = test system: HT29 colon
A549 NSCLC = test system: A549 NSCLC
UACC-257 melanoma = test system: UACC-257 melanoma
SK-MEL-28 melanoma = test system: SK-MEL-28 melanoma
HCC-2998 colon = test system: HCC-2998 colon
SNB-75 CNS = test system: SNB-75 CNS
KM12 colon = test system: KM12 colon
U251 CNS = test system: U251 CNS
SK-MEL-5 melanoma = test system: SK-MEL-5 melanoma
K-562 leukemia = test system: K-562 leukemia
BT-549 breast = test system: BT-549 breast
OVCAR-4 ovarian = test system: OVCAR-4 ovarian
MDA-MB-468 breast = test system: MDA-MB-468 breast
OVCAR-5 ovarian = test system: OVCAR-5 ovarian
NCI-H226 lung = test system: NCI-H226 lung
NCI-H460 lung = test system: NCI-H460 lung
HS 578T breast = test system: HS 578T breast
UACC-62 melanoma = test system: UACC-62 melanoma
SF-539 CNS = test system: SF-539 CNS
CAKI-1 renal = test system: CAKI-1 renal
UO-31 renal = test system: UO-31 renal
PC-3 prostate = test system: PC-3 prostate
SK-MEL-2 melanoma = test system: SK-MEL-2 melanoma
TK-10 renal = test system: TK-10 renal
ACHN renal = test system: ACHN renal
SF-268 CNS = test system: SF-268 CNS
MALME-3M melanoma = test system: MALME-3M melanoma
OVCAR-8 ovarian = test system: OVCAR-8 ovarian
NCI-H23 lung = test system: NCI-H23 lung
HOP-62 NSCLC = test system: HOP-62 NSCLC
SF-295 CNS = test system: SF-295 CNS
COLO 205 colon = test system: COLO 205 colon
SK-OV-3 ovarian = test system: SK-OV-3 ovarian
LOX IMVI melanoma = test system: LOX IMVI melanoma

In the case of `O=C1Nc2cc(Cl)ccc2/C1=C/c1ccc(OCc2ccc(Br)cc2F)cc1`, the GI50 (HL-60(TB) leukemia) is reported as 17.7 µM, the TGI (HL-60(TB) leukemia) is reported as 53.6 µM and the GI50 (M14 melanoma) is reported as 2.91 µM. The TGI (M14 melanoma) was 9.02 µM, the GI50 (DU-145 prostate) was 3.39 µM and the TGI (DU-145 prostate) was 10.1 µM. It also gave a GI50 (RXF 393 renal) of 2.73 µM, a TGI (RXF 393 renal) of 9.28 µM and a GI50 (HOP-92 NSCLC) of 2.28 µM. It also gave a TGI (HOP-92 NSCLC) of 6.17 µM, a GI50 (IGROV1 ovarian) of 2.43 µM and a TGI (IGROV1 ovarian) of 6.3 µM. The GI50 (OVCAR-3 ovarian) was 2.49 µM, the TGI (OVCAR-3 ovarian) was 5.08 µM and the GI50 (CCRF-CEM leukemia) was 3.86 µM. The TGI (CCRF-CEM leukemia) was 14.6 µM, the GI50 (MCF7 breast) was 2.11 µM and the TGI (MCF7 breast) was 14.2 µM. For the same compound, the GI50 (HCT-15 colon) was 3.4 µM, the TGI (HCT-15 colon) was 13 µM and the GI50 (SNB-19 CNS) was 2.3 µM. It also gave a TGI (SNB-19 CNS) of 5.72 µM, a GI50 (SN12C renal) of 5.31 µM and a TGI (SN12C renal) of 19.6 µM. The GI50 (SW-620 colon) was 2.02 µM, the TGI (SW-620 colon) was 4.18 µM and the GI50 (MOLT-4 leukemia) was 3.98 µM. The TGI (MOLT-4 leukemia) was 14.4 µM, the GI50 (EKVX NSCLC) was 3.69 µM and the TGI (EKVX NSCLC) was 17.1 µM. The GI50 (786-0 renal) was 1.9 µM, the TGI (786-0 renal) was 3.5 µM and the GI50 (NCI-H522 lung) was 1.99 µM. For the same compound, the TGI (NCI-H522 lung) was 4.89 µM, the GI50 (MDA-MB-435) was 2.87 µM and the TGI (MDA-MB-435) was 8.54 µM. For the same compound, the GI50 (RPMI-8226 leukemia) was 4.41 µM, the TGI (RPMI-8226 leukemia) was 18.1 µM and the GI50 (MDA-MB-231 breast) was 2.33 µM. It also gave a TGI (MDA-MB-231 breast) of 5.92 µM, a GI50 (SR leukemia) of 2.07 µM and a TGI (SR leukemia) of 4.45 µM. For the same compound, the GI50 (A498 renal) was 2.23 µM, the TGI (A498 renal) was 4.59 µM and the GI50 (T-47D breast) was 4.19 µM. For the same compound, the TGI (T-47D breast) was 18.3 µM, the GI50 (HT29 colon) was 4.69 µM and the TGI (HT29 colon) was 19.5 µM. For the same compound, the GI50 (A549 NSCLC) was 2.08 µM, the TGI (A549 NSCLC) was 4.35 µM and the GI50 (UACC-257 melanoma) was 9.42 µM. For the same compound, the TGI (UACC-257 melanoma) was 26.3 µM, the GI50 (SK-MEL-28 melanoma) was 2.18 µM and the TGI (SK-MEL-28 melanoma) was 4.92 µM. For the same compound, the GI50 (HCC-2998 colon) was 15.4 µM, the TGI (HCC-2998 colon) was 37.7 µM and the GI50 (SNB-75 CNS) was 2.19 µM. For the same compound, the TGI (SNB-75 CNS) was 7 µM, the GI50 (KM12 colon) was 3.54 µM and the TGI (KM12 colon) was 11.5 µM. For the same compound, the GI50 (U251 CNS) was 1.92 µM, the TGI (U251 CNS) was 3.62 µM and the GI50 (SK-MEL-5 melanoma) was 3.47 µM. It also gave a TGI (SK-MEL-5 melanoma) of 12.3 µM, a GI50 (K-562 leukemia) of 4.03 µM and a TGI (K-562 leukemia) of 17 µM. For the same compound, the GI50 (BT-549 breast) was 1.92 µM, the TGI (BT-549 breast) was 4.26 µM and the GI50 (OVCAR-4 ovarian) was 1.9 µM. It also gave a TGI (OVCAR-4 ovarian) of 3.98 µM, a GI50 (MDA-MB-468 breast) of 2.24 µM and a TGI (MDA-MB-468 breast) of 4.65 µM. The GI50 (OVCAR-5 ovarian) was 8.24 µM, the TGI (OVCAR-5 ovarian) was 34.3 µM and the GI50 (NCI-H226 lung) was 2.07 µM. For the same compound, the TGI (NCI-H226 lung) was 5.53 µM, the GI50 (NCI-H460 lung) was 2.02 µM and the TGI (NCI-H460 lung) was 3.74 µM. It also gave a GI50 (HS 578T breast) of 2.05 µM, a TGI (HS 578T breast) of 6.6 µM and a GI50 (UACC-62 melanoma) of 1.82 µM. The TGI (UACC-62 melanoma) was 3.8 µM, the GI50 (SF-539 CNS) was 1.92 µM and the TGI (SF-539 CNS) was 3.59 µM. For the same compound, the GI50 (CAKI-1 renal) was 1.7 µM, the TGI (CAKI-1 renal) was 3.46 µM and the GI50 (UO-31 renal) was 1.55 µM. The TGI (UO-31 renal) was 4.65 µM, the GI50 (PC-3 prostate) was 1.91 µM and the TGI (PC-3 prostate) was 4.46 µM. The GI50 (SK-MEL-2 melanoma) was 7.22 µM, the TGI (SK-MEL-2 melanoma) was 21.7 µM and the GI50 (TK-10 renal) was 2.73 µM. The TGI (TK-10 renal) was 7.15 µM, the GI50 (ACHN renal) was 1.92 µM and the TGI (ACHN renal) was 3.83 µM. For the same compound, the GI50 (SF-268 CNS) was 2.67 µM, the TGI (SF-268 CNS) was 6.35 µM and the GI50 (MALME-3M melanoma) was 1.82 µM. The TGI (MALME-3M melanoma) was 3.83 µM, the GI50 (OVCAR-8 ovarian) was 3.31 µM and the TGI (OVCAR-8 ovarian) was 10.4 µM. It also gave a GI50 (NCI-H23 lung) of 1.79 µM, a TGI (NCI-H23 lung) of 4.08 µM and a GI50 (HOP-62 NSCLC) of 1.9 µM. The TGI (HOP-62 NSCLC) was 4.21 µM, the GI50 (SF-295 CNS) was 2.07 µM and the TGI (SF-295 CNS) was 4.36 µM. For the same compound, the GI50 (COLO 205 colon) was 4.03 µM, the TGI (COLO 205 colon) was 17 µM and the GI50 (SK-OV-3 ovarian) was 3.81 µM. It also gave a TGI (SK-OV-3 ovarian) of 13.5 µM, a GI50 (LOX IMVI melanoma) of 1.73 µM and a TGI (LOX IMVI melanoma) of 3.61 µM.
